According to publication PMC8429728, “TNK1 is a ubiquitin-binding and 14-3-3-regulated kinase that can be targeted to block tumor growth” (Nature Communications, 2021):
Like-named read-outs stand apart in the source and are kept apart here.

Assays:
Assay in all cases: biochemical
Design in all cases: Reaction Biology 371-kinase panel at Km ATP, per cent enzyme activity relative to DMSO, single dose in duplicate
SLK/STK2 = SLK/STK2 (Homo sapiens, UniProt Q9H2G2); conditions: duplicate measurements, Km ATP
How it was run: (§1)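 Activity of each kinase, normalised to DMSO-treated controls, served as the read-out. The inhibitor was tested at 300 nM against 371 kinases in vitro. Curves fitted by variable-slope sigmoidal dose-response, constrained to a bottom of 0, gave IC50.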

ERN2/IRE2 = ERN2/IRE2 (Homo sapiens, UniProt Q76MJ5); conditions: duplicate measurements, Km ATP
How it was run: as §1

CDK7/cyclin H = CDK7/cyclin H (Homo sapiens, UniProt P50613); conditions: duplicate measurements, Km ATP
How it was run: as §1

FLT4/VEGFR3 = FLT4/VEGFR3 (Homo sapiens, UniProt P35916); conditions: duplicate measurements, Km ATP
How it was run: as §1

MSSK1/STK23 = target: T1, MSSK1/STK23 (Homo sapiens, UniProt Q9UPE1); conditions: duplicate measurements, Km ATP
T1 construct: gene SRPK3
How it was run: as §1

RSK2 = target: T2, RSK2 (Homo sapiens, UniProt P51812); conditions: duplicate measurements, Km ATP
T2 construct: gene RPS6KA3
How it was run: as §1

HIPK1 = HIPK1 (Homo sapiens, UniProt Q86Z02); conditions: duplicate measurements, Km ATP
How it was run: as §1

CDK17/cyclin Y (PCTK2) = CDK17/cyclin Y (PCTK2) (Homo sapiens, UniProt Q00537); conditions: duplicate measurements, Km ATP; read-out: % Enzyme Activity (relative to DMSO controls) / TP-0005801 (0.3µM) / Data 1
How it was run: as §1

HIPK2 = HIPK2 (Homo sapiens, UniProt Q9H2X6); conditions: duplicate measurements, Km ATP
How it was run: as §1

VRK2 = VRK2 (Homo sapiens, UniProt Q86Y07); conditions: duplicate measurements, Km ATP
How it was run: as §1

PASK = PASK (Homo sapiens, UniProt Q96RG2); conditions: duplicate measurements, Km ATP; read-out: % Enzyme Activity (relative to DMSO controls) / TP-0005801 (0.3µM) / Data 1
How it was run: as §1

ERK5/MAPK7 = ERK5/MAPK7 (Homo sapiens, UniProt Q13164); conditions: duplicate measurements, Km ATP
How it was run: as §1

MELK = MELK (Homo sapiens, UniProt Q14680); conditions: duplicate measurements, Km ATP
How it was run: as §1

PKCb2 = target: T3, PKCb2 (Homo sapiens, UniProt P05771); conditions: duplicate measurements, Km ATP
T3 construct: gene PRKCB; isoform beta II
How it was run: as §1

NEK2 = NEK2 (Homo sapiens, UniProt P51955); conditions: duplicate measurements, Km ATP
How it was run: as §1

MNK1 = target: T4, MNK1 (Homo sapiens, UniProt Q9BUB5); conditions: duplicate measurements, Km ATP
T4 construct: gene MKNK1
How it was run: as §1

MARK1 = MARK1 (Homo sapiens, UniProt Q9P0L2); conditions: duplicate measurements, Km ATP
How it was run: as §1

TIE2/TEK = TIE2/TEK (Homo sapiens, UniProt Q02763); conditions: duplicate measurements, Km ATP
How it was run: as §1

TRKC = target: T5, TRKC (Homo sapiens, UniProt Q16288); conditions: duplicate measurements, Km ATP
T5 construct: gene NTRK3
How it was run: as §1

P38b/MAPK11 = P38b/MAPK11 (Homo sapiens, UniProt Q15759); conditions: duplicate measurements, Km ATP
How it was run: as §1

[1] = read-out: % Enzyme Activity (relative to DMSO controls) / TP-0005801 (0.3µM) / Data 1
[2] = read-out: % Enzyme Activity (relative to DMSO controls) / TP-0005801 (0.3µM) / Data 2

Sequence of VRK2 (Q86Y07 whole entry): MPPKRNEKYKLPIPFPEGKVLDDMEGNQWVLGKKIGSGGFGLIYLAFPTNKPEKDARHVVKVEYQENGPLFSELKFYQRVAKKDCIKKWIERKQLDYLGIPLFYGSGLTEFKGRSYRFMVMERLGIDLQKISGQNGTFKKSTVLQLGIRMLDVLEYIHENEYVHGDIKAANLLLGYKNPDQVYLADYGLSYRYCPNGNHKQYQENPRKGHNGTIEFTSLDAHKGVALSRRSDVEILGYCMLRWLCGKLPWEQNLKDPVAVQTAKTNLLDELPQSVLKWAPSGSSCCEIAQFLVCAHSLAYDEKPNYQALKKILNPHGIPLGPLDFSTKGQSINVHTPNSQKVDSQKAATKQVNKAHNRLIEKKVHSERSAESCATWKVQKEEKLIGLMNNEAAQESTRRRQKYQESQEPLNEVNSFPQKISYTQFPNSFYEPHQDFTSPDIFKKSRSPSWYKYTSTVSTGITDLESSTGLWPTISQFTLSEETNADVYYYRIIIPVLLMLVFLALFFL
Sequence of ERN2/IRE2 (Q76MJ5 whole entry): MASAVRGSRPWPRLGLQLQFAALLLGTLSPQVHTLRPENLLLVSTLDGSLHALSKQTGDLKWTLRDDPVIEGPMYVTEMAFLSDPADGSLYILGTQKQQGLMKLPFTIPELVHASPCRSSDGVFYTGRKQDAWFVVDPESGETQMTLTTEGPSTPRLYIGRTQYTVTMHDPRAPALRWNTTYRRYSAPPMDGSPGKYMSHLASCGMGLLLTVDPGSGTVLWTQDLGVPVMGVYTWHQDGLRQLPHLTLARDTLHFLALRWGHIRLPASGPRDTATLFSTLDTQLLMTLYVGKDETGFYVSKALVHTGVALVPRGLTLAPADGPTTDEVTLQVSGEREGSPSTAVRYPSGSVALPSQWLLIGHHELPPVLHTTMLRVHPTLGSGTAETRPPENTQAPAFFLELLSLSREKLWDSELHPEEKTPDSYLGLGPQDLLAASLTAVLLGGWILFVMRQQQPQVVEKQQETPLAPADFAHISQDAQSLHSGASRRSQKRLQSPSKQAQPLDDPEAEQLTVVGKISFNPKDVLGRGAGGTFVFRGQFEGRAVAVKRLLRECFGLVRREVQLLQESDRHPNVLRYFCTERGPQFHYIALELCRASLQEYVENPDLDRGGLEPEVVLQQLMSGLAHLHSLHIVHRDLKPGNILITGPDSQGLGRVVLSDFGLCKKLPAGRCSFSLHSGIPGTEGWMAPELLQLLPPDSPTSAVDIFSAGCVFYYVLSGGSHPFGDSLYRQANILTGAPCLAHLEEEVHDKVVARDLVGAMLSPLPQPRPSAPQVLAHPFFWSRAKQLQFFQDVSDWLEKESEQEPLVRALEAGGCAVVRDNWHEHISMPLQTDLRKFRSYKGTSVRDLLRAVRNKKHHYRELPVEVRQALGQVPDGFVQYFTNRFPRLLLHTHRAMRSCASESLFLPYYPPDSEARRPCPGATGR
Sequence of HIPK2 (Q9H2X6 whole entry): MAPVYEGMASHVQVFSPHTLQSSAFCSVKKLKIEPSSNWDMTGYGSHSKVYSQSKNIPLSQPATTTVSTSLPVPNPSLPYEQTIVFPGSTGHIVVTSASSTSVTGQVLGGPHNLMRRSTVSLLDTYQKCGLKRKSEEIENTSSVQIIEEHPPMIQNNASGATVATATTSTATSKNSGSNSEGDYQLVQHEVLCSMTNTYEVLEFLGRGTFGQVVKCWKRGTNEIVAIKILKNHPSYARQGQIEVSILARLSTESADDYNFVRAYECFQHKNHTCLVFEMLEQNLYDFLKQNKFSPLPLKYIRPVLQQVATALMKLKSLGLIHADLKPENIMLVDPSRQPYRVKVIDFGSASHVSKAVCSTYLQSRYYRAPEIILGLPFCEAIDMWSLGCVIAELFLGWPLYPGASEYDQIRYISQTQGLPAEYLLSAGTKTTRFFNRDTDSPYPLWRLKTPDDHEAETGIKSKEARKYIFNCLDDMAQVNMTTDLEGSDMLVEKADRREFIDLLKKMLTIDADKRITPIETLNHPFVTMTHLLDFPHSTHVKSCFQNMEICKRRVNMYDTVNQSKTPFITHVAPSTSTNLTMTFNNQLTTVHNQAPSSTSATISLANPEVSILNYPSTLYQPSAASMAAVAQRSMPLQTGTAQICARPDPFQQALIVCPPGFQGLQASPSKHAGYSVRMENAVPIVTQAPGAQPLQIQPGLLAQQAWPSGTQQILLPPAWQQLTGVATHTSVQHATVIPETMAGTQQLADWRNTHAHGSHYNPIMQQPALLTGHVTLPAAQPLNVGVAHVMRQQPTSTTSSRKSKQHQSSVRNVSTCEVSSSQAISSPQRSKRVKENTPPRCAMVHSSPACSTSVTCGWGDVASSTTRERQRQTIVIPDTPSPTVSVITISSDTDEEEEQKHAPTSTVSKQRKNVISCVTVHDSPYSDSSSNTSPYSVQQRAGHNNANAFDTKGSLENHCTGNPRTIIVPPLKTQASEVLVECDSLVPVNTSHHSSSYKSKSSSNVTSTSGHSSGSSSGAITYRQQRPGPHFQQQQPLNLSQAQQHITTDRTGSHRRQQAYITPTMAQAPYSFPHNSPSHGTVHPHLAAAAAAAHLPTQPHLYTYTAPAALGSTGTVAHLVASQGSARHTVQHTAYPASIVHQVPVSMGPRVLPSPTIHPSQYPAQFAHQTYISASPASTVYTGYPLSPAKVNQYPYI
Sequence of MELK (Q14680 whole entry): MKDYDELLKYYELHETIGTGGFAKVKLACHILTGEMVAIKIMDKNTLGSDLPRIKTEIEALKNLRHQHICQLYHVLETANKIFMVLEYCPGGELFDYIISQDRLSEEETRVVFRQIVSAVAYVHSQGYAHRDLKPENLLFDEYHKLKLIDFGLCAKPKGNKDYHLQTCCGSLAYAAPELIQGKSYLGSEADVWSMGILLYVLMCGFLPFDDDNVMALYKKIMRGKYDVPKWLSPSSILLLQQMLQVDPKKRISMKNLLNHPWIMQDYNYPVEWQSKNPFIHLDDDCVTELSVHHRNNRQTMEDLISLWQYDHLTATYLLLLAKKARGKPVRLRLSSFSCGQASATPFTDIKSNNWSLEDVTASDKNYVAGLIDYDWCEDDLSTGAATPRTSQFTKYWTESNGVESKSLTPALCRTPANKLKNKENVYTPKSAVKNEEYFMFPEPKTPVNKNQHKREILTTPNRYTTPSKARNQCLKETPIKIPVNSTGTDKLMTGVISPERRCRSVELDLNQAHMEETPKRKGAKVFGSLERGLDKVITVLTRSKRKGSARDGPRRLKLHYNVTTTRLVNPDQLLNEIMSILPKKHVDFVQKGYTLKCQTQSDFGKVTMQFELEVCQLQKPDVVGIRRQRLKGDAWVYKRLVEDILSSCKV
T2 sequence (P51812 whole entry): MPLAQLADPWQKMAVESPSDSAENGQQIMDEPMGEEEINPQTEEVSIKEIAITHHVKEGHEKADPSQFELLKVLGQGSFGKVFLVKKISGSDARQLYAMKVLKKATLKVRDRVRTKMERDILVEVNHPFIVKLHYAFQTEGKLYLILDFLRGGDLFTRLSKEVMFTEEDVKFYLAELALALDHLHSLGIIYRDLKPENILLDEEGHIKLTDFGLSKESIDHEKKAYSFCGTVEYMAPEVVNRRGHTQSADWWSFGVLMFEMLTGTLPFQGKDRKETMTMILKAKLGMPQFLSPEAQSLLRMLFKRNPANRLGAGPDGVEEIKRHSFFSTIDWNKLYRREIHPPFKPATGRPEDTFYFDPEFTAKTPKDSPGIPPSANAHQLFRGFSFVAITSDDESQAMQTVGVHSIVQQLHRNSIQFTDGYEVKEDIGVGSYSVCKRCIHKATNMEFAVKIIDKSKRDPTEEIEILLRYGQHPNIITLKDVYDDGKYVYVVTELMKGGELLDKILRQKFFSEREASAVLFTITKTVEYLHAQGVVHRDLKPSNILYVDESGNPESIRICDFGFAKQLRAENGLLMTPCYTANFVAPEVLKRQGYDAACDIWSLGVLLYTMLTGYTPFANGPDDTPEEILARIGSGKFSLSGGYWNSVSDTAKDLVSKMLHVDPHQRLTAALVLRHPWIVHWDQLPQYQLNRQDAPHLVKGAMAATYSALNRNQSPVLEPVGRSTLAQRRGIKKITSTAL
T1 sequence (Q9UPE1 whole entry): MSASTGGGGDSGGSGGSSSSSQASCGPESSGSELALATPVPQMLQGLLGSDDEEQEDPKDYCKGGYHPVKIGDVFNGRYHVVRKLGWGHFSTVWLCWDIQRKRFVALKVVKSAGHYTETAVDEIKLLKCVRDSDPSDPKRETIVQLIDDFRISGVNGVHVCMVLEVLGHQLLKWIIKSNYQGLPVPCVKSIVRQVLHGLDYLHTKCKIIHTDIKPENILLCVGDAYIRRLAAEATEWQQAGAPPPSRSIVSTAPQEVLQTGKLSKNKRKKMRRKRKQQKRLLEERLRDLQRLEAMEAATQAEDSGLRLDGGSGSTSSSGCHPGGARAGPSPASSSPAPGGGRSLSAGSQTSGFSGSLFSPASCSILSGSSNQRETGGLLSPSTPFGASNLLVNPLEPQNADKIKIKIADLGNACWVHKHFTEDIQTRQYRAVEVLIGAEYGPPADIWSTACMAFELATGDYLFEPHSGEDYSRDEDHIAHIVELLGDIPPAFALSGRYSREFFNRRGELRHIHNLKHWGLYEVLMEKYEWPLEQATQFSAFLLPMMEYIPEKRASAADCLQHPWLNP
Sequence of P38b/MAPK11 (Q15759 whole entry): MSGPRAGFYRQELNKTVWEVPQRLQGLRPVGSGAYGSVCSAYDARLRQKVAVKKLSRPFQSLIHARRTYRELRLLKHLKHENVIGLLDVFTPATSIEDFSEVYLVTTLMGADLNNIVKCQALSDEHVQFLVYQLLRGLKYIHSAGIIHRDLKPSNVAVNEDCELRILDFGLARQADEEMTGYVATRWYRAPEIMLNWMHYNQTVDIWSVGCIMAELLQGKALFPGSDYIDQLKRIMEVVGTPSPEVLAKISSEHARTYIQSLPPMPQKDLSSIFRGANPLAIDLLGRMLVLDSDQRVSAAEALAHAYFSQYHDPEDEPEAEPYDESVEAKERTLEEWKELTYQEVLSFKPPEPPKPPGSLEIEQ

Q: For `COc1cc(N2CCN(C)CC2)c(C)cc1Nc1ncc(Br)c(Nc2cccnc2N(C)C)n1` [TP-5801], which remaining activity at 0.3 µM (SLK/STK2; [1]) is on record?
A: The remaining activity at 0.3 µM was 55.6%.

Q: What about the remaining activity at 0.3 µM (SLK/STK2; [2]) of the same compound?
A: Its remaining activity at 0.3 µM is 48.5%.

Q: What about the remaining activity at 0.3 µM (ERN2/IRE2; [1]) of the same compound?
A: Its remaining activity at 0.3 µM is 52.8%.

Q: What about the remaining activity at 0.3 µM (ERN2/IRE2; [2]) of the same compound?
A: The remaining activity at 0.3 µM was 51.5%.

Q: What about the remaining activity at 0.3 µM (CDK7/cyclin H; [1]) of the same compound?
A: Its remaining activity at 0.3 µM is 103%.

Q: What about the remaining activity at 0.3 µM (CDK7/cyclin H; [2]) of the same compound?
A: Its remaining activity at 0.3 µM is 101%.

Q: And the remaining activity at 0.3 µM (FLT4/VEGFR3; [1])?
A: Its remaining activity at 0.3 µM is 35.2%.

Q: And the remaining activity at 0.3 µM (FLT4/VEGFR3; [2])?
A: Its remaining activity at 0.3 µM is 35.1%.

Q: What about the remaining activity at 0.3 µM (MSSK1/STK23; [1]) of the same compound?
A: Its remaining activity at 0.3 µM is 89.7%.

Q: What about the remaining activity at 0.3 µM (MSSK1/STK23; [2]) of the same compound?
A: The remaining activity at 0.3 µM was 88.8%.

Q: What about the remaining activity at 0.3 µM (RSK2; [1]) of the same compound?
A: Its remaining activity at 0.3 µM is 90.5%.

Q: And the remaining activity at 0.3 µM (RSK2; [2])?
A: The remaining activity at 0.3 µM was 84.9%.

Q: What about the remaining activity at 0.3 µM (HIPK1; [1]) of the same compound?
A: Its remaining activity at 0.3 µM is 90.8%.

Q: And the remaining activity at 0.3 µM (HIPK1; [2])?
A: The remaining activity at 0.3 µM was 89.2%.

Q: What about the remaining activity at 0.3 µM (CDK17/cyclin Y (PCTK2)) of the same compound?
A: The remaining activity at 0.3 µM was 101%.

Q: What about the remaining activity at 0.3 µM (HIPK2; [1]) of the same compound?
A: Its remaining activity at 0.3 µM is 106%.

Q: And the remaining activity at 0.3 µM (HIPK2; [2])?
A: The remaining activity at 0.3 µM was 96.6%.

Q: And the remaining activity at 0.3 µM (VRK2; [1])?
A: Its remaining activity at 0.3 µM is 96%.

Q: What about the remaining activity at 0.3 µM (VRK2; [2]) of the same compound?
A: Its remaining activity at 0.3 µM is 93.9%.

Q: And the remaining activity at 0.3 µM (PASK)?
A: Its remaining activity at 0.3 µM is 102%.

Q: What about the remaining activity at 0.3 µM (ERK5/MAPK7; [1]) of the same compound?
A: Its remaining activity at 0.3 µM is 91.6%.

Q: And the remaining activity at 0.3 µM (ERK5/MAPK7; [2])?
A: Its remaining activity at 0.3 µM is 90.9%.

Q: What about the remaining activity at 0.3 µM (MELK; [1]) of the same compound?
A: Its remaining activity at 0.3 µM is 93.1%.

Q: And the remaining activity at 0.3 µM (MELK; [2])?
A: Its remaining activity at 0.3 µM is 90.3%.

Q: What about the remaining activity at 0.3 µM (PKCb2; [1]) of the same compound?
A: The remaining activity at 0.3 µM was 94.4%.

Q: And the remaining activity at 0.3 µM (PKCb2; [2])?
A: The remaining activity at 0.3 µM was 93.6%.

Q: And the remaining activity at 0.3 µM (NEK2; [1])?
A: Its remaining activity at 0.3 µM is 60.3%.

Q: What about the remaining activity at 0.3 µM (NEK2; [2]) of the same compound?
A: Its remaining activity at 0.3 µM is 55.8%.

Q: And the remaining activity at 0.3 µM (MNK1; [1])?
A: The remaining activity at 0.3 µM was 92.5%.

Q: What about the remaining activity at 0.3 µM (MNK1; [2]) of the same compound?
A: Its remaining activity at 0.3 µM is 90.8%.

Q: And the remaining activity at 0.3 µM (MARK1; [1])?
A: The remaining activity at 0.3 µM was 101%.

Q: And the remaining activity at 0.3 µM (MARK1; [2])?
A: Its remaining activity at 0.3 µM is 99.2%.

Q: And the remaining activity at 0.3 µM (TIE2/TEK; [1])?
A: The remaining activity at 0.3 µM was 83.6%.

Q: What about the remaining activity at 0.3 µM (TIE2/TEK; [2]) of the same compound?
A: The remaining activity at 0.3 µM was 80.7%.

Q: What about the remaining activity at 0.3 µM (TRKC; [1]) of the same compound?
A: Its remaining activity at 0.3 µM is 109%.

Q: And the remaining activity at 0.3 µM (TRKC; [2])?
A: The remaining activity at 0.3 µM was 104%.

Q: And the remaining activity at 0.3 µM (P38b/MAPK11; [1])?
A: Its remaining activity at 0.3 µM is 102%.

Q: What about the remaining activity at 0.3 µM (P38b/MAPK11; [2]) of the same compound?
A: The remaining activity at 0.3 µM was 101%.
